# How the values were obtained:
# [1] = tested on: sulfonylurea herbicide-resistant Lindernia dubia subsp. major Pennell; assay: Paddy pot weeding test, flooded, two-leaf stage (Test Example 1); type: in vivo; conditions: 1 g/are, three weeks after treatment, resistant biotype, Kawanishi Town, Yamagata Pref.
# Source text: (§1) A 5 cm×5 cm Jiffy Pot™ was charged with paddy soil, then water was introduced into each pot, seeds of sulfonylurea herbicide-sensitive Scirpus juncoides var. ohwianus, sulfonylurea herbicide-sensitive Lindernia procumbens (Krock.) Philcox, sulfonylurea herbicide-sensitive Lindernia dubia subsp. major Pennell, sulfonylurea herbicide-resistant Scirpus juncoides var. ohwianus, sulfonylurea herbicide-resistant Lindernia procumbens (Krock.) Philcox and sulfonylurea herbicide-resistant Lindernia dubia subsp. major Pennell were sowed therein and cultivated for a prescribed period under flooding conditions. When the plants reached the two-leave stage, the prescribed number of Jiffy Pots where the plants had been grown were transferred to a 150-cm^2 rectangular plastic pot, and water was introduced to a height of 3 cm, and a chemical diluent containing a compound was applied into the pot in an amount of 1 g/are. The chemical diluent was prepared by dissolving 1.5 g compound in 2 L of N,N-dimethylformamide (DMF) containing, 2% (W/V) surfactant Tween™ 20 and then diluting it with water to adjust the total volume to 10 L.
# [2] = tested on: sulfonylurea herbicide-resistant Lindernia procumbens (Krock.) Philcox; assay: as above; type: in vivo; conditions: 1 g/are, three weeks after treatment, resistant biotype, Tajiri Town, Miyagi Pref.
# Source text: as §1
# [3] = tested on: sulfonylurea herbicide-resistant Scirpus juncoides var. ohwianus; assay: as above; type: in vivo; conditions: 1 g/are, three weeks after treatment, resistant biotype, Iwamisawa City, Hokkaido
# Source text: as §1
# [4] = tested on: sulfonylurea herbicide-sensitive Lindernia dubia subsp. major Pennell; assay: as above; type: in vivo; conditions: 1 g/are, three weeks after treatment, sensitive biotype, Makabe Town, Ibaraki Pref.
# Source text: as §1
# [5] = tested on: sulfonylurea herbicide-sensitive Lindernia procumbens (Krock.) Philcox; assay: as above; type: in vivo; conditions: 1 g/are, three weeks after treatment, sensitive biotype, Kyoto Pref.
# Source text: as §1
# [6] = tested on: sulfonylurea herbicide-sensitive Scirpus juncoides var. ohwianus; assay: as above; type: in vivo; conditions: 1 g/are, three weeks after treatment, sensitive biotype, Kyoto Pref.
# Source text: as §1
Compound,melting point,R Lindernia dubia subsp. major Pennell (effect index) [1],R Lindernia procumbens (Krock.) Philcox (effect index) [2],R Scirpus juncoides var. ohwianus (effect index) [3],S Lindernia dubia subsp. major Pennell (effect index) [4],S Lindernia procumbens (Krock.) Philcox (effect index) [5],S Scirpus juncoides var. ohwianus (effect index) [6]
CCc1nc2ccc(S(C)(=O)=O)nn2c1NC(=O)NS(=O)(=O)c1nc(OC)cc(OC)n1 [Compound No. 9],206 to 208 °C,5 (excellent 81 to 100),3 (moderate 41 to 60),5 (excellent 81 to 100),5 (excellent 81 to 100),5 (excellent 81 to 100),5 (excellent 81 to 100)
CCOc1ccc2nc(C)c(NC(=O)NS(=O)(=O)c3nc(OC)cc(OC)n3)n2n1 [Compound No. 16],168 to 170 °C (dec.),5 (excellent 81 to 100),4 (high 61 to 80),5 (excellent 81 to 100),5 (excellent 81 to 100),5 (excellent 81 to 100),5 (excellent 81 to 100)
COc1cc(OC)nc(S(=O)(=O)NC(=O)Nc2c(S(C)(=O)=O)nn3ccsc23)n1 [Compound No. 35],190 to 201 °C,5 (excellent 81 to 100),3 (moderate 41 to 60),5 (excellent 81 to 100),5 (excellent 81 to 100),5 (excellent 81 to 100),5 (excellent 81 to 100)
"CCSc1ccc2nc(CC)c(S(=O)(=O)NC(=O)Nc3nc(OC)cc(OC)n3)n2n1 [Compound No. 7, 1-(4,6-dimethoxypyrimidin-2-yl)-3-(2-ethyl-6-ethylthioimidazo[1,2-b]pyridazin-3-ylsulfonyl)urea]",160 to 165 °C (dec.),4 (high 61 to 80),3 (moderate 41 to 60),5 (excellent 81 to 100),5 (excellent 81 to 100),5 (excellent 81 to 100),5 (excellent 81 to 100)
"CCc1ccc2nc(C)c(S(=O)(=O)NC(=O)Nc3nc(OC)cc(OC)n3)n2n1 [Compound No. 13, 1-(4,6-dimethoxypyrimidin-2-yl)-3-(6-ethyl-2-methylimidazo[1,2-b]pyridazin-3-ylsulfonyl)urea]",172 to 174 °C,5 (excellent 81 to 100),5 (excellent 81 to 100),5 (excellent 81 to 100),5 (excellent 81 to 100),5 (excellent 81 to 100),5 (excellent 81 to 100)
CCNc1ccc2nc(Cl)c(NC(=O)NS(=O)(=O)c3nc(OC)cc(OC)n3)n2n1 [Compound No. 3],169 to 171 °C,5 (excellent 81 to 100),5 (excellent 81 to 100),5 (excellent 81 to 100),5 (excellent 81 to 100),5 (excellent 81 to 100),5 (excellent 81 to 100)
"COc1cc(OC)nc(NC(=O)NS(=O)(=O)c2c(C)nc3cccnn23)n1 [comparison 1, reference compound]",,1 (very slight 1 to 20),0 (none 0),2 (slight 21 to 40),5 (excellent 81 to 100),5 (excellent 81 to 100),5 (excellent 81 to 100)

# Further lines, with some results ahead:
melting point,Compound,R Lindernia dubia subsp. major Pennell (effect index) [1],R Lindernia procumbens (Krock.) Philcox (effect index) [2],R Scirpus juncoides var. ohwianus (effect index) [3],S Lindernia dubia subsp. major Pennell (effect index) [4],S Lindernia procumbens (Krock.) Philcox (effect index) [5],S Scirpus juncoides var. ohwianus (effect index) [6]
266 to 267 °C,COc1cc(OC)nc(S(=O)(=O)NC(=O)Nc2c(C(F)(F)F)nc3ccc(SC)nn23)n1 [Compound No. 12],5 (excellent 81 to 100),3 (moderate 41 to 60),5 (excellent 81 to 100),5 (excellent 81 to 100),5 (excellent 81 to 100),5 (excellent 81 to 100)
178 to 180 °C (dec.),COc1cc(OC)nc(S(=O)(=O)NC(=O)Nc2c(C)nc3ccc(SC)nn23)n1 [Compound No. 19],4 (high 61 to 80),5 (excellent 81 to 100),5 (excellent 81 to 100),5 (excellent 81 to 100),5 (excellent 81 to 100),5 (excellent 81 to 100)
163 to 165 °C,COc1cc(OC)nc(S(=O)(=O)NC(=O)Nc2c(Cl)nc3ccc(SC)nn23)n1 [Compound No. 26],4 (high 61 to 80),3 (moderate 41 to 60),5 (excellent 81 to 100),5 (excellent 81 to 100),5 (excellent 81 to 100),5 (excellent 81 to 100)
174 to 176 °C,CCc1nc2ccc(N(C)C)nn2c1NC(=O)NS(=O)(=O)c1nc(OC)cc(OC)n1 [Compound No. 4],5 (excellent 81 to 100),3 (moderate 41 to 60),5 (excellent 81 to 100),5 (excellent 81 to 100),5 (excellent 81 to 100),5 (excellent 81 to 100)
183 to 185 °C (dec.),COc1cc(OC)nc(S(=O)(=O)NC(=O)Nc2c(C)nc3ccc(N(C)C)nn23)n1 [Compound No. 14],4 (high 61 to 80),3 (moderate 41 to 60),5 (excellent 81 to 100),5 (excellent 81 to 100),5 (excellent 81 to 100),5 (excellent 81 to 100)
162 to 166 °C,CCc1ccc2nc(Cl)c(NC(=O)NS(=O)(=O)c3nc(OC)cc(OC)n3)n2n1 [Compound No. 37],5 (excellent 81 to 100),5 (excellent 81 to 100),5 (excellent 81 to 100),5 (excellent 81 to 100),5 (excellent 81 to 100),5 (excellent 81 to 100)
163 to 165 °C,CCSc1ccc2nc(C)c(NC(=O)NS(=O)(=O)c3nc(OC)cc(OC)n3)n2n1 [Compound No. 18],5 (excellent 81 to 100),5 (excellent 81 to 100),5 (excellent 81 to 100),5 (excellent 81 to 100),5 (excellent 81 to 100),5 (excellent 81 to 100)
146 to 148 °C,CCc1nc2ccc(SC)nn2c1NC(=O)NS(=O)(=O)c1nc(OC)cc(OC)n1 [Compound No. 8],5 (excellent 81 to 100),5 (excellent 81 to 100),5 (excellent 81 to 100),5 (excellent 81 to 100),5 (excellent 81 to 100),5 (excellent 81 to 100)

# Reference: US8399381B2, “Condensed heterocyclic sulfonyl urea compound, a herbicide containing the same, and a method for weed control using the same” (Sumitomo Chemical Company, Limited, priority 2002, dated 2013)
